Structures are written as SMILES. Some results are limits rather than exact numbers.

One test concerns Diabrotica balteata (Corn Root Worm). Kind of test: Diabrotica balteata, artificial diet MTP test. The conditions noted are these: 120 h, 200 ppm (concentration in well 18 ppm), L2 larvae, larval mortality after 5 days. It is filed as in vivo. The method, then:
A 24-well microtiter plate (MTP) with artificial diet was treated with test solutions at an application rate of 200 ppm (concentration in well 18 ppm) by pipetting. After drying, the MTP's were infested with L2 larvae (6-10 per well). After an incubation period of 5 days, samples were checked for larval mortality The following compound gave at least 80% control of Diabrotica balteata: 1, 2, 3, 4, 5, 6, 7, 8, 9, 10, 11, 12, 13, 14, 15, 16, 17, 18, 19, 20, 21, 22, 23, 24, 25, 26, 27, 28, 29, 30, 31, 32, 33, 34, 35, 36, 37, 38, 39, 40, 41, 42, 43, 44, 45, 46, 47, 48, 49, 50, 51.
On to `CCN(C(=O)c1ccncc1)c1cccc(C(=O)Nc2c(Br)cc(C(F)(C(F)(F)F)C(F)(F)Br)cc2OC(F)F)c1F` (centres unmarked) [Compound 7], for which the pest or weed control at 200 ppm is at least 80%.
Same read-out and setting: next, `CCN(C(=O)c1ccc(C#N)cc1)c1cccc(C(=O)Nc2c(Br)cc(C(F)(C(F)(F)F)C(F)(F)Br)cc2OC(F)F)c1F` (centres unmarked) [Compound 8]: at least 80%.
Still for that read-out and setting: next, `CCN(C(=O)c1ccncc1)c1cccc(C(=O)Nc2c(Br)cc(C(F)(C(F)(F)F)C(F)(F)Br)cc2OC(F)F)c1OC` (centres unmarked) [Compound 9]: at least 80%.
On the same count and under the same terms, in the case of `CCN(C(=O)c1ccc(C#N)cc1)c1cccc(C(=O)Nc2c(Br)cc(C(F)(C(F)(F)F)C(F)(F)Br)cc2OC(F)F)c1OC` (centres unmarked) [Compound 10] it was at least 80%.

A further test deals with Myzus persicae (Green Peach Aphid). Put plainly: Myzus persicae, sunflower leaf disc spray test. It is filed as in vivo. The conditions noted are these: foliar, 144 h, sprayed sunflower leaf discs, aphid population of mixed ages, mortality after 6 DAT. The method, then: Sunflower leaf discs were placed on agar in a 24-well microtiter plate and sprayed with test solutions at an application rate of 200 ppm. After drying, the leaf discs were infested with an aphid population of mixed ages. After an incubation period of 6 DAT, samples were checked for mortality.
The molecule `CCN(C(=O)c1ccncc1)c1cccc(C(=O)Nc2c(Br)cc(C(F)(C(F)(F)F)C(F)(F)Br)cc2OC(F)F)c1F` (centres unmarked) [Compound 7] had a pest or weed control at 200 ppm of at least 80%.
On the same count and under the same terms, next, `CCN(C(=O)c1ccc(C#N)cc1)c1cccc(C(=O)Nc2c(Br)cc(C(F)(C(F)(F)F)C(F)(F)Br)cc2OC(F)F)c1F` (centres unmarked) [Compound 8]: at least 80%; `CCN(C(=O)c1ccncc1)c1cccc(C(=O)Nc2c(Br)cc(C(F)(C(F)(F)F)C(F)(F)Br)cc2OC(F)F)c1OC` (centres unmarked) [Compound 9]: at least 80%; `CCN(C(=O)c1ccc(C#N)cc1)c1cccc(C(=O)Nc2c(Br)cc(C(F)(C(F)(F)F)C(F)(F)Br)cc2OC(F)F)c1OC` (centres unmarked) [Compound 10]: at least 80%.

For the next test the test system is unchanged. Kind of test: Myzus persicae, sucrose solution / Parafilm test. The test is classed as in vivo. To be noted: 120 h, mixed with sucrose solution under Parafilm, mortality 5 days after infestation. The source says:
Test compounds were applied by pipette into 24 well plates and mixed with Sucrose solution. Application rate: 12.5 ppm. The plates were closed with a stretched Parafilm. A plastic stencil with 24 holes is placed onto the plate and infested pea seedlings were placed directly on the Parafilm. The infested plate is closed with a gel blotting paper and another plastic stencil and then turned upside down. 5 days after infestation the samples were checked on mortality.
In turn, `CCN(C(=O)c1ccncc1)c1cccc(C(=O)Nc2c(Br)cc(C(F)(C(F)(F)F)C(F)(F)Br)cc2OC(F)F)c1F` (centres unmarked) [Compound 7] showed a pest or weed control at 12.5 ppm of at least 80%.
Turning to `CCN(C(=O)c1ccc(C#N)cc1)c1cccc(C(=O)Nc2c(Br)cc(C(F)(C(F)(F)F)C(F)(F)Br)cc2OC(F)F)c1F` (centres unmarked) [Compound 8], the pest or weed control at 12.5 ppm is at least 80%.
`CCN(C(=O)c1ccncc1)c1cccc(C(=O)Nc2c(Br)cc(C(F)(C(F)(F)F)C(F)(F)Br)cc2OC(F)F)c1OC` (centres unmarked) [Compound 9] showed a pest or weed control at 12.5 ppm of at least 80%.
`CCN(C(=O)c1ccc(C#N)cc1)c1cccc(C(=O)Nc2c(Br)cc(C(F)(C(F)(F)F)C(F)(F)Br)cc2OC(F)F)c1OC` (centres unmarked) [Compound 10] gave a pest or weed control at 12.5 ppm of at least 80%.

The test system of the next test is Plutella xylostella (Diamond Back Moth). Put plainly: Plutella xylostella, artificial diet MTP test. To be noted: 144 h, 200 ppm (concentration in well 18 ppm), L2 larvae, 6 days. The test is classed as in vivo. Here is the method: 24-well microtiter plate (MTP) with artificial diet was treated with test solutions at an application rate of 200 ppm (concentration in well 18 ppm) by pipetting. After drying, the MTP's were infested with L2 larvae (7-12 per well). After an incubation period of 6 days, samples were checked for larval mortality and growth regulation. The following compound gave at least 80% mortality of Plutella xylostella: 1, 2, 3, 4, 5, 6, 7, 8, 9, 10, 11, 12, 13, 14, 15, 16, 17, 18, 19, 20, 21, 22, 23, 24, 25, 26, 27, 28, 29, 30, 31, 32, 33, 34, 35, 36, 37, 38, 39, 40, 41, 42, 43, 44, 45, 46, 47, 48, 49, 50.
`CCN(C(=O)c1ccncc1)c1cccc(C(=O)Nc2c(Br)cc(C(F)(C(F)(F)F)C(F)(F)Br)cc2OC(F)F)c1F` (centres unmarked) [Compound 7]: the mortality at 200 ppm is at least 80%.
In turn, `CCN(C(=O)c1ccc(C#N)cc1)c1cccc(C(=O)Nc2c(Br)cc(C(F)(C(F)(F)F)C(F)(F)Br)cc2OC(F)F)c1F` (centres unmarked) [Compound 8] registered a mortality at 200 ppm of at least 80%.
Molecule `CCN(C(=O)c1ccncc1)c1cccc(C(=O)Nc2c(Br)cc(C(F)(C(F)(F)F)C(F)(F)Br)cc2OC(F)F)c1OC` (centres unmarked) [Compound 9] displayed a mortality at 200 ppm of at least 80%.
With `CCN(C(=O)c1ccc(C#N)cc1)c1cccc(C(=O)Nc2c(Br)cc(C(F)(C(F)(F)F)C(F)(F)Br)cc2OC(F)F)c1OC` (centres unmarked) [Compound 10], the mortality at 200 ppm is at least 80%.

The test system of the next test is Spodoptera littoralis (Egyptian Cotton Leafworm). Put plainly: Spodoptera littoralis, cotton leaf disc spray test. The conditions noted are these: foliar, 72 h, sprayed cotton leaf discs, L1 larvae, 3 days after treatment. It is filed as in vivo. An excerpt:
Cotton leaf discs were placed on agar in a 24-well microtiter plate and sprayed with test solutions at an application rate of 200 ppm. After drying, the leaf discs were infested with 5 L1 larvae. The samples were checked for mortality 3 days after treatment (DAT).
`CCN(C(=O)c1ccncc1)c1cccc(C(=O)Nc2c(Br)cc(C(F)(C(F)(F)F)C(F)(F)Br)cc2OC(F)F)c1F` (centres unmarked) [Compound 7] came in with a mortality at 200 ppm of at least 80%.
In turn, `CCN(C(=O)c1ccc(C#N)cc1)c1cccc(C(=O)Nc2c(Br)cc(C(F)(C(F)(F)F)C(F)(F)Br)cc2OC(F)F)c1F` (centres unmarked) [Compound 8] returned a mortality at 200 ppm of at least 80%.
For `CCN(C(=O)c1ccncc1)c1cccc(C(=O)Nc2c(Br)cc(C(F)(C(F)(F)F)C(F)(F)Br)cc2OC(F)F)c1OC` (centres unmarked) [Compound 9], the mortality at 200 ppm is at least 80%.
Still for that read-out and setting: in the case of `CCN(C(=O)c1ccc(C#N)cc1)c1cccc(C(=O)Nc2c(Br)cc(C(F)(C(F)(F)F)C(F)(F)Br)cc2OC(F)F)c1OC` (centres unmarked) [Compound 10] it was at least 80%.

In the next test the test system is Spodoptera littoralis (Egyptian Cotton Leaf Worm). Kind of test: Spodoptera littoralis, agar / lettuce root uptake test. The test is classed as in vivo. The conditions noted are these: 144 h, mixed with agar, uptake by lettuce roots, mortality 6 days after infestation. The source says: Test compounds were applied by pipette into 24 well plates and mixed with agar. Application rate: 12.5 ppm. Lettuce seeds were placed on the agar and the multi well plate is closed by another plate which contains also agar. After 7 days the roots have absorbed the compound and the lettuce has grown into the lid plate. The lettuce leafs were now cut off into the lid plate. Spodoptera eggs were pipetted through a plastic stencil on a humid gel blotting paper and the plate closed with it. The samples are checked for mortality 6 days after infestation.
Regarding `CCN(C(=O)c1ccncc1)c1cccc(C(=O)Nc2c(Br)cc(C(F)(C(F)(F)F)C(F)(F)Br)cc2OC(F)F)c1F` (centres unmarked) [Compound 7], the pest or weed control at 12.5 ppm was at least 80%.
On the same count and under the same terms, in the case of `CCN(C(=O)c1ccc(C#N)cc1)c1cccc(C(=O)Nc2c(Br)cc(C(F)(C(F)(F)F)C(F)(F)Br)cc2OC(F)F)c1F` (centres unmarked) [Compound 8] it was at least 80%; in that of `CCN(C(=O)c1ccncc1)c1cccc(C(=O)Nc2c(Br)cc(C(F)(C(F)(F)F)C(F)(F)Br)cc2OC(F)F)c1OC` (centres unmarked) [Compound 9], at least 80%.
The same measure, in the same setting: next, `CCN(C(=O)c1ccc(C#N)cc1)c1cccc(C(=O)Nc2c(Br)cc(C(F)(C(F)(F)F)C(F)(F)Br)cc2OC(F)F)c1OC` (centres unmarked) [Compound 10]: at least 80%.

A further test deals with Tetranychus urticae (Two-Spotted Spider Mite). Put plainly: Tetranychus urticae, bean leaf disc spray test. It is filed as in vivo. The conditions noted are these: foliar, 192 h, sprayed bean leaf discs, mite populations of mixed ages, 8 days. The source says: Bean leaf discs on agar in 24-well microtiter plates were sprayed with test solutions at an application rate of 200 ppm. After drying, the leaf discs are infested with mite populations of mixed ages. 8 days later, discs were checked for mortality.
As for `CCN(C(=O)c1ccncc1)c1cccc(C(=O)Nc2c(Br)cc(C(F)(C(F)(F)F)C(F)(F)Br)cc2OC(F)F)c1F` (centres unmarked) [Compound 7], the mortality at 200 ppm is at least 80%.
On the same count and under the same terms, in the case of `CCN(C(=O)c1ccc(C#N)cc1)c1cccc(C(=O)Nc2c(Br)cc(C(F)(C(F)(F)F)C(F)(F)Br)cc2OC(F)F)c1F` (centres unmarked) [Compound 8] it was at least 80%; in that of `CCN(C(=O)c1ccncc1)c1cccc(C(=O)Nc2c(Br)cc(C(F)(C(F)(F)F)C(F)(F)Br)cc2OC(F)F)c1OC` (centres unmarked) [Compound 9], at least 80%; in that of `CCN(C(=O)c1ccc(C#N)cc1)c1cccc(C(=O)Nc2c(Br)cc(C(F)(C(F)(F)F)C(F)(F)Br)cc2OC(F)F)c1OC` (centres unmarked) [Compound 10], at least 80%.

In another test the test system is Thrips tabaci (Onion Thrips). Kind of test: Thrips tabaci, sunflower leaf disc spray test. It is filed as in vivo. To be noted: foliar, 168 h, sprayed sunflower leaf discs, mortality after 7 days.
In turn, `CCN(C(=O)c1ccncc1)c1cccc(C(=O)Nc2c(Br)cc(C(F)(C(F)(F)F)C(F)(F)Br)cc2OC(F)F)c1F` (centres unmarked) [Compound 7] registered a pest or weed control at 200 ppm of at least 80%.
`CCN(C(=O)c1ccc(C#N)cc1)c1cccc(C(=O)Nc2c(Br)cc(C(F)(C(F)(F)F)C(F)(F)Br)cc2OC(F)F)c1F` (centres unmarked) [Compound 8] yielded a pest or weed control at 200 ppm of at least 80%.
Still for that read-out and setting: in the case of `CCN(C(=O)c1ccncc1)c1cccc(C(=O)Nc2c(Br)cc(C(F)(C(F)(F)F)C(F)(F)Br)cc2OC(F)F)c1OC` (centres unmarked) [Compound 9] it was at least 80%; in that of `CCN(C(=O)c1ccc(C#N)cc1)c1cccc(C(=O)Nc2c(Br)cc(C(F)(C(F)(F)F)C(F)(F)Br)cc2OC(F)F)c1OC` (centres unmarked) [Compound 10], at least 80%.

What is called pest or weed control is the degree to which the test organism was suppressed or injured, in per cent. A low value points to weak suppression. For orientation: mortality means the share of the test organisms that died.

The record behind these values is USRE49022E1, “Insecticidal compounds” (SYNGENTA PARTICIPATIONS AG, priority 2013, dated 2022).
